Measurements: ChEMBL document CHEMBL4842322, “A naphthalimide-polyamine conjugate preferentially accumulates in hepatic carcinoma metastases as a lysosome-targeted antimetastatic agent” (Eur J Med Chem, 2021)

How the values were obtained:
Format in all cases: functional, cell-based
Huh-7 = assay: Cytotoxicity against human Huh-7 cells assessed as inhibition of cell growth incubated for 48 hrs by MTT assay; conditions: Huh-7, 48 h
HepG2 = assay: Cytotoxicity against human HepG2 cells assessed as inhibition of cell growth incubated for 48 hrs by MTT assay; conditions: HepG2, 48 h
MDA-MB-231 = assay: Cytotoxicity against human MDA-MB-231 cells assessed as inhibition of cell growth incubated for 48 hrs by MTT assay; conditions: MDA-MB-231, 48 h
A549 [1] = assay: Cytotoxicity against cisplatin-resistant human A549 cells assessed as inhibition of cell growth incubated for 48 hrs by MTT assay; conditions: A549, 48 h
A549 [2] = assay: Cytotoxicity against human A549 cells assessed as inhibition of cell growth incubated for 48 hrs by MTT assay; conditions: A549, 48 h
MCF7 = assay: Cytotoxicity against human MCF7 cells assessed as inhibition of cell growth incubated for 48 hrs by MTT assay; conditions: MCF7, 48 h

CCCNCCCNCCCNCCCN1C(=O)c2cccc3cc(NC(=O)CN)cc(c23)C1=O
IC50 (Huh-7): 14.9 µM
IC50 (HepG2): > 30 µM
IC50 (MDA-MB-231): > 30 µM
IC50 (A549 [1]): > 30 µM
IC50 (A549 [2]): > 30 µM
IC50 (MCF7): > 30 µM
